Assays:
[1] = target: T1, TLR7 (Homo sapiens, UniProt Q9NYK1); assay: Inhibition of R848-induced signaling in HEK-Blue hTLR7 cell line (Quanti-Blue); format: cell-based
T1 construct: host or cells: HEK-Blue hTLR7 (HEK293-derived SEAP reporter cells)
T1 sequence (Q9NYK1 27-1049): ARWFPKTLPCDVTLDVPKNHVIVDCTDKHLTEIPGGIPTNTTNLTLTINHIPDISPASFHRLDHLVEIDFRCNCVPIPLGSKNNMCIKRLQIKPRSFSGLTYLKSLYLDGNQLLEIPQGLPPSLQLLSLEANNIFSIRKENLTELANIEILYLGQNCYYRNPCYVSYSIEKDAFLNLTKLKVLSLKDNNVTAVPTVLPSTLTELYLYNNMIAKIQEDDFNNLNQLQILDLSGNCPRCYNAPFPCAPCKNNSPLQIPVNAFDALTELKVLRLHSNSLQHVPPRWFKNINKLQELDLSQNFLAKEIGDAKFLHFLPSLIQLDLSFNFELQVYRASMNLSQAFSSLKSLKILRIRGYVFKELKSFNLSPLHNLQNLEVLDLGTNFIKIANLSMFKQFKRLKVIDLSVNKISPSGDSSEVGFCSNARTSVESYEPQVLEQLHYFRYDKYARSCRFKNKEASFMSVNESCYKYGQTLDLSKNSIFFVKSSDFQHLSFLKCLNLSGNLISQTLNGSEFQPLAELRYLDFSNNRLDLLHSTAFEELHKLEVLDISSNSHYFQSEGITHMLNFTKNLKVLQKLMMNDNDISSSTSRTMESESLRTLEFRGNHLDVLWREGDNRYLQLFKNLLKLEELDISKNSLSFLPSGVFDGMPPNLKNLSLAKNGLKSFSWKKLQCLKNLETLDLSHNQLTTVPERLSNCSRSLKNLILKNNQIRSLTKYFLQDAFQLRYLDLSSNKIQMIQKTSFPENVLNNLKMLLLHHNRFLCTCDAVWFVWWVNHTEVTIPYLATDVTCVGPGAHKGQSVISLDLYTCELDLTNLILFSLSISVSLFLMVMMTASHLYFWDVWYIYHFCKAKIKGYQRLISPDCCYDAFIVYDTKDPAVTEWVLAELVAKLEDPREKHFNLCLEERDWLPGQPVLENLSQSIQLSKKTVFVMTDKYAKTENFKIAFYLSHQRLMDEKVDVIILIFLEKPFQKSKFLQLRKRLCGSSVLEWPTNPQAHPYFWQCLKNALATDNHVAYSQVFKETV
Description: (§1) HEK Blue hTLR8 cells or HEK Blue hTLR7 cells were cultured in DMEM medium supplemented with 10% fetal bovine serum, penicillin (100 U/mL) and streptomycin ([…]). Thereafter, cells were seeded in 96-well plate (45,000 cells per well), and were cultured for 24 hours in a humidified incubator (37° C., 5% CO2).
After 24 hours, the supernatant and suspending cells were aspirated and replaced with fresh serum-free DMEM. Cells were treated with 1 μg/mL of R848 (agonist of TLR7/8) or 5 μg/mL of ssRNA40/LyoVec or 5 μg/mL of ORN06/LyoVec (InvivoGen) and compounds with specified concentrations, and were placed in a humidified incubator (37° C., 5% CO2) for co-culture.
(§2) After 24 hours, 50 μL of the medium was aspirated from each well and then added to a new 96-well plate, followed by the addition of 50 μL of Quanti-Blue in each well and the incubation at 37° C. in darkness. Changes in color would occur in the […] within 60 minutes, and the absorbance was measured at 620 nm by using the multi-mode plate reader Vrioskan Flash. Inhibition rate (%)=[R848 (OD620)−Compound (OD620)]/[R848 (OD620)−Control (OD620)]×100%. Among these, the control group was only added with the same amount of cells. Finally, the software Prism 6.0 was utilized to plot a graph and calculate IC50 values. Or, the activity of the cells treated with ligand and DMSO was defined as 100% activity, and the activity of the untreated cells was defined as 0% activity.

[2] = system: HEK-Blue hTLR8 cell line; assay: Toxicity test of compounds (CCK-8 cell viability); format: cell-based, human; design: key to WST1 (normalized toxicity effect): viability relative to control well (background-subtracted OD), 1 = control; conditions: normalized cell viability, HEK-Blue cell lines
Description: In the 96-well plate used for the above-mentioned activity test of compounds (remaining 50 μL of culture medium containing cells), 5 μL of CellCountingKit-8 (CCK-8) Supermix was added to each well. Note that the introduction of air bubbles into the wells should be avoided since the air bubbles would interfere with the detection of OD value.
The culture plate was incubated in an incubator for 1 to 4 hours,
The edge of the 96-well plate could be tapped gently before reading the plate, and then the absorbance at 450 nm was measured by using the multi-mode plate reader.
Cell viability (%) was determined using the following formula: cell viability (%)=([Compound well ([…])−Background well (OD450)]/[Control well ([…])−Background well (OD450)])×100%. Among these, the background well was only added with the medium and CCK-8 reagent, the control well was only added with the medium, cells, R848 and CCK-8, and the compound wells were added with the medium, cells, R848, compounds in different concentrations, and CCK-8.

[3] = target: T2, TLR8 (Homo sapiens, UniProt Q9NR97); assay: Inhibition of R848-induced signaling in HEK-Blue hTLR8 cell line (Quanti-Blue); format: cell-based; conditions: HEK-Blue hTLR8 cell line; normalized, ligand+DMSO = 100% activity, untreated = 0%
T2 construct: host or cells: HEK-Blue hTLR8 (HEK293-derived SEAP reporter cells)
T2 sequence (Q9NR97 27-1041): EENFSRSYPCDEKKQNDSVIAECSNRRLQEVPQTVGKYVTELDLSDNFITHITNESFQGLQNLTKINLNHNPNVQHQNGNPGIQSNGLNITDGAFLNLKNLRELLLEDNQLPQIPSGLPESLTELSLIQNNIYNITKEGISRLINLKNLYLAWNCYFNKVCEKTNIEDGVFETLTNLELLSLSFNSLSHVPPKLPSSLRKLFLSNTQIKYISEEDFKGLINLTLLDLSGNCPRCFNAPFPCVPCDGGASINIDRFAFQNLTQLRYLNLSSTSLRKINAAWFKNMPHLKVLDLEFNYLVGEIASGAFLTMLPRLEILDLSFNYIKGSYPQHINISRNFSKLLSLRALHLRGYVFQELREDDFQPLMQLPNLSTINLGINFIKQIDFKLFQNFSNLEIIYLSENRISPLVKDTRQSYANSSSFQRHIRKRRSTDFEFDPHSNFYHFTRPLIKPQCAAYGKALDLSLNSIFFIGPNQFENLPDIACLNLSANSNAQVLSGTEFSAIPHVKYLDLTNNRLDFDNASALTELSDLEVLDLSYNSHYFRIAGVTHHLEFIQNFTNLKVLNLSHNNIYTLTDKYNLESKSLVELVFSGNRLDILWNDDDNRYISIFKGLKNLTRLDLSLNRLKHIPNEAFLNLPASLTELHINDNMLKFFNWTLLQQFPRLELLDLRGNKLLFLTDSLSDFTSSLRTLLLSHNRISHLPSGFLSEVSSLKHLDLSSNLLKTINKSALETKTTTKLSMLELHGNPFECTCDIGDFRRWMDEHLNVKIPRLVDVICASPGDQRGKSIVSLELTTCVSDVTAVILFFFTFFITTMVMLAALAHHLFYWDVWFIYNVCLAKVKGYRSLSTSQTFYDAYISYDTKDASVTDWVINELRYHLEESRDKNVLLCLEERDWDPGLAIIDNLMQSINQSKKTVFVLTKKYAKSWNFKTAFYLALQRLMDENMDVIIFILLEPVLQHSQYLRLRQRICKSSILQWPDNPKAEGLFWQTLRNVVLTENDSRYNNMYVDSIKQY
Description: as §1
After 24 hours, the supernatant and suspending cells were aspirated and replaced with fresh serum-free DMEM.
as §2

CCOCc1nc(C#N)c(-c2ccccc2)n1CC(C)(C)O [Compound 38, 2-(ethoxymethyl)-1-(2-hydroxy-2-methylpropyl)-5-phenyl-1H-imidazole-4-carbonitrile]
TLR7 (normalized inhibitory effect on R848-induced signaling) [1]: 1.0 ± 0.2 | WST1 (normalized toxicity effect) [2]: 0.7 ± 0.3 | Remaining R848-induced TLR8 signaling (normalized activity; ligand+DMSO = 1, untreated = 0) [3]: 1.1 ± 0.2

CCOCc1nc(C(=N)N)c(-c2ccccc2)n1CC(C)(C)O [Compound 39, 2-(ethoxymethyl)-1-(2-hydroxy-2-methylpropyl)-5-phenyl-1H-imidazole-4-carboxamidine]
TLR7 (normalized inhibitory effect on R848-induced signaling) [1]: 0.8 ± 0.1 | WST1 (normalized toxicity effect) [2]: 0.7 ± 0.2 | Remaining R848-induced TLR8 signaling (normalized activity; ligand+DMSO = 1, untreated = 0) [3]: 1.0 ± 0.2

CCOCc1nc(C(N)=O)c(-c2ccccc2)n1CC(C)(C)O [Compound 40, 2-(ethoxymethyl)-1-(2-hydroxy-2-methylpropyl)-5-phenyl-1H-imidazole-4-carboxamide]
TLR7 (normalized inhibitory effect on R848-induced signaling) [1]: 1.0 ± 0.1 | WST1 (normalized toxicity effect) [2]: 0.8 ± 0.3 | Remaining R848-induced TLR8 signaling (normalized activity; ligand+DMSO = 1, untreated = 0) [3]: 0.7 ± 0.1

CCOCc1nc(C=O)c(-c2ccccc2)n1CC(C)(C)O [Compound 41, 2-(ethoxymethyl)-1-(2-hydroxy-2-methylpropyl)-5-phenyl-1H-imidazole-4-carbaldehyde]
TLR7 (normalized inhibitory effect on R848-induced signaling) [1]: 1.1 ± 0.2 | WST1 (normalized toxicity effect) [2]: 0.7 ± 0.2 | Remaining R848-induced TLR8 signaling (normalized activity; ligand+DMSO = 1, untreated = 0) [3]: 1.2 + 0.2

CCOCc1nc(C(=O)OC)c(-c2ccccc2)n1CC(C)(C)O [Compound 42, methyl 2-(ethoxymethyl)-1-(2-hydroxy-2-methylpropyl)-5-phenyl-1H-imidazole-4-carboxylate]
TLR7 (normalized inhibitory effect on R848-induced signaling) [1]: 0.9 ± 0.2 | WST1 (normalized toxicity effect) [2]: 0.9 ± 0.1 | Remaining R848-induced TLR8 signaling (normalized activity; ligand+DMSO = 1, untreated = 0) [3]: 0.9 ± 0.2

CCOCc1nc(CO)c(-c2ccccc2)n1CC(C)(C)O [Compound 43, 1-[2-(ethoxymethyl)-4-(hydroxymethyl)-5-phenyl-1H-imidazole-1-yl]-2-methylpropan-2-ol]
TLR7 (normalized inhibitory effect on R848-induced signaling) [1]: 0.9 ± 0.2 | WST1 (normalized toxicity effect) [2]: 0.8 ± 0.1 | Remaining R848-induced TLR8 signaling (normalized activity; ligand+DMSO = 1, untreated = 0) [3]: 1.0 ± 0.2

CCOCc1nc(COC)c(-c2ccccc2)n1CC(C)(C)O [Compound 44, 1-[2-(ethoxymethyl)-4-(methoxymethyl)-5-phenyl-1H-imidazole-1-yl]-2-methylpropan-2-ol]
TLR7 (normalized inhibitory effect on R848-induced signaling) [1]: 0.9 ± 0.2 | WST1 (normalized toxicity effect) [2]: 0.8 ± 0.2 | Remaining R848-induced TLR8 signaling (normalized activity; ligand+DMSO = 1, untreated = 0) [3]: 1.0 ± 0.3

CCOCc1nc(C)c(-c2ccccc2)n1CC(C)(C)O [Compound 45, 1-[2-(ethoxymethyl)-4-methyl-5-phenyl-1H-imidazole-1-yl]-2-methylpropan-2-ol]
TLR7 (normalized inhibitory effect on R848-induced signaling) [1]: 0.9 ± 0.1 | WST1 (normalized toxicity effect) [2]: 0.8 ± 0.3 | Remaining R848-induced TLR8 signaling (normalized activity; ligand+DMSO = 1, untreated = 0) [3]: 0.8 ± 0.2

CCOCc1nc(CF)c(-c2ccccc2)n1CC(C)(C)O [Compound 46, 1-[2-(ethoxymethyl)-4-(fluoromethyl)-5-phenyl-1H-imidazole-1-yl]-2-methylpropan-2-ol]
TLR7 (normalized inhibitory effect on R848-induced signaling) [1]: 0.8 ± 0.2 | WST1 (normalized toxicity effect) [2]: 0.9 ± 0.3 | Remaining R848-induced TLR8 signaling (normalized activity; ligand+DMSO = 1, untreated = 0) [3]: 1.0 ± 0.2

CCOCc1nc(C(C)C)c(-c2ccccc2)n1CC(C)(C)O [Compound 48, 1-[2-(ethoxymethyl)-5-phenyl-4-(prop-2-yl)-1H-imidazole-1-yl]-2-methylpropan-2-ol]
TLR7 (normalized inhibitory effect on R848-induced signaling) [1]: 0.7 ± 0.1 | WST1 (normalized toxicity effect) [2]: 0.8 ± 0.3 | Remaining R848-induced TLR8 signaling (normalized activity; ligand+DMSO = 1, untreated = 0) [3]: 0.9 ± 0.2

CCOCc1ncc(-c2ccccc2)n1CC(C)(C)O [Compound 50, 1-[2-(ethoxymethyl)-5-phenyl-1H-imidazole-1-yl]-2-methylpropan-2-ol]
TLR7 (normalized inhibitory effect on R848-induced signaling) [1]: 1.0 ± 0.1 | WST1 (normalized toxicity effect) [2]: 0.9 ± 0.2 | Remaining R848-induced TLR8 signaling (normalized activity; ligand+DMSO = 1, untreated = 0) [3]: 1.1 ± 0.3

CCOCc1nc(Cl)c(-c2ccccc2)n1CC(C)(C)O [Compound 51, 1-[4-chloro-2-(ethoxymethyl)-5-phenyl-1H-imidazole-1-yl]-2-methylpropan-2-ol]
TLR7 (normalized inhibitory effect on R848-induced signaling) [1]: 1.1 ± 0.2 | WST1 (normalized toxicity effect) [2]: 0.9 ± 0.2 | Remaining R848-induced TLR8 signaling (normalized activity; ligand+DMSO = 1, untreated = 0) [3]: 0.6 ± 0.1

CCOCc1nc(Br)c(-c2ccccc2)n1CC(C)(C)O [Compound 52, 1-[4-bromo-2-(ethoxymethyl)-5-phenyl-1H-imidazole-1-yl]-2-methylpropan-2-ol]
TLR7 (normalized inhibitory effect on R848-induced signaling) [1]: 0.8 ± 0.2 | WST1 (normalized toxicity effect) [2]: 1.1 ± 0.3 | Remaining R848-induced TLR8 signaling (normalized activity; ligand+DMSO = 1, untreated = 0) [3]: 0.3 ± 0.2
